Data on 4 compounds can be found in US10640402B2, “Use of oxidizing and non-oxidizing biocides for control of bacteria tolerant to stabilized-oxidant treatment” (Ecolab USA Inc., priority 2012, dated 2020).

SMILES strings stand for the structures.

Data set [1] deals with Cl2-urea tolerant bacteria. In words: Biocide screening against Cl2-urea tolerant bacteria (Table 4). The class given is cell-based.
Data set [2] concerns Cl2-urea tolerant bacteria. The data set is described as follows: Laboratory screening using process water treated with urea-stabilized chlorine (Table 5). The class given is cell-based. As to conditions: for control of Cl2-urea tolerant bacteria (in words): typical use rates, Table 5 screening.
Data set [3] relates to urease-producing microorganisms. The data set is described as follows: Antimicrobial screening of biocides for control of urease-producing microorganisms. It is filed as cell-based.
In another data set the test system is urease. The data set is described as follows: Chlorine residual (TRO) with and without urease enzyme. As to conditions: control without urease. It is filed as physicochemical.
The subject of data set [4] is process water microbial population (paper mill). The data set is described as follows: Initial laboratory screening of paper mill process water treated with NaOCl, before the urea-stabilized chlorine program. It is filed as cell-based. As to conditions: 5 ppm Cl2. The method, then: (§1) The process water stream of a paper mill was treated using a urea-stabilized chlorine program.
(§2) Process water samples were challenged with untreated process water (1% v/v) after the 4-hours samples were plated. […] In Table 1, preservation from urea-stabilized chlorine was observed prior to the application of this program to the mill water system and development of the tolerant population.

Data set [5] concerns microbial population tolerant to urea-stabilized chlorine. The data set is described as follows: Repeat laboratory screening of process water after 10 months of urea-stabilized chlorine treatment. The class given is cell-based. The conditions noted are these: 5 ppm Cl2. The method, then:
as §1, §2

Where [6] appears, read: 24-hour, challenged with untreated process water (1% v/v) after 4-hour plating.

Regarding `O=[N+]([O-])C(Br)(CO)CO` [Bronopol], the “CFU/mL, 24-hour” value is listed as 1.0 × 10^5 CFU/mL in data set [1] (25 ppm product) and 1.3 × 10^4 CFU/mL in data set [1] (100 ppm product). In data set [2], the “control of Cl2-urea tolerant bacteria (in words)” value is reported as “not effective”.

Regarding `N#CC(Br)(Br)C(N)=O` [Dibromonitrilopropionamide, dibromonitrilopropionamide], the “CFU/mL, 24-hour” value in data set [1] (25 ppm product) is recorded as 4.2 × 10^3 CFU/mL; in data set [1] (100 ppm product), below 100 CFU/mL; in data set [2] (25 ppm product) it was 3.0 × 10^4 CFU/mL; in data set [2] (100 ppm product), 3.0 × 10^2 CFU/mL. The “CFU/mL, 1-hour” value in data set [2] (25 ppm product) is on record as 1.4 × 10^5 CFU/mL; in data set [2] (100 ppm product) it was 6.0 × 10^2 CFU/mL. The “CFU/mL, 4-hour” value is 7.0 × 10^4 CFU/mL in data set [2] (25 ppm product) and 2.0 × 10^2 CFU/mL in data set [2] (100 ppm product). The “control of Cl2-urea tolerant bacteria (in words)” value in data set [2] is recorded as “particularly effective”. In addition, in data set [3], the “control of urease-producing microorganisms (in words)” value is listed as “effective control”.

For `O=CCCCC=O` [Glutaraldehyde, glutaraldehyde], the “CFU/mL, 24-hour” value is listed as 100 CFU/mL in data set [1] (25 ppm product), below 100 CFU/mL in data set [1] (100 ppm product), 1.0 × 10^2 CFU/mL in data set [2] (25 ppm product) and 2 × 10^2 CFU/mL in data set [2] (100 ppm product). The entries for the “CFU/mL, 1-hour” value in data set [2] (25 ppm product) and in data set [2] (100 ppm product) were 1.0 × 10^6 CFU/mL and 1.0 × 10^2 CFU/mL, respectively. For the same compound, the “CFU/mL, 4-hour” value in data set [2] (25 ppm product) is listed as 8.5 × 10^3 CFU/mL; in data set [2] (100 ppm product), 1.0 × 10^2 CFU/mL. The “control of Cl2-urea tolerant bacteria (in words)” value in data set [2] is “particularly effective”. Also, the “control of urease-producing microorganisms (in words)” value in data set [3] is “effective control”.

`[Na+].[O-]Cl` [NaOCl, sodium hypochlorite]: the “CFU/mL, 24-hour” value in data set [1] (2.5 ppm as Cl2) was 5.1 × 10^5 CFU/mL; in data set [1] (10.0 ppm as Cl2), below 100 CFU/mL; in data set [2] (2.5 ppm as Cl2), 1.0 × 10^7 CFU/mL; in data set [2] (10.0 ppm as Cl2) it was 5.0 × 10^2 CFU/mL. Besides, in the data set on urease (1-hour), the “TRO (as ppm Cl2), 1-hour” value is given as 4.6 ppm Cl2. For the same compound, the “TRO (as ppm Cl2), 4-hour” value with urease (4-hour) was determined as 4.5 ppm Cl2. For the same compound, the “TRO (as ppm Cl2), 24-hour” value in the data set on urease (24-hour) turned out to be 4.1 ppm Cl2. Moreover, the “CFU/mL, Initial Screening, 1-hour” value in data set [4] (1-hour) is on record as 3.4 × 10^5 CFU/mL. Besides, the “CFU/mL, Initial Screening, 4-hour” value in data set [4] (4-hour) is recorded as 3.6 × 10^6 CFU/mL. Moreover, in data set [4] (setting [6]), the “CFU/mL, Initial Screening, 24-hour” value was 1.9 × 10^7 CFU/mL. In data set [5] (1-hour), the “CFU/mL, Repeat Screening, 1-hour” value is 2.8 × 10^6 CFU/mL. For the same compound, the “CFU/mL, Repeat Screening, 4-hour” value in data set [5] (4-hour) is given as 6.0 × 10^6 CFU/mL. In addition, the “CFU/mL, Repeat Screening, 24-hour” value in data set [5] (setting [6]) is 3.6 × 10^7 CFU/mL. The “CFU/mL, 1-hour” value in data set [2] (2.5 ppm as Cl2) is listed as 1.9 × 10^5 CFU/mL; in data set [2] (10.0 ppm as Cl2), 2.0 × 10^2 CFU/mL. For the same compound, the “CFU/mL, 4-hour” value in data set [2] (2.5 ppm as Cl2) is 2.0 × 10^6 CFU/mL; in data set [2] (10.0 ppm as Cl2), 2.0 × 10^2 CFU/mL. Further, in data set [2], the “control of Cl2-urea tolerant bacteria (in words)” value is “also effective, but was required at higher concentrations”. Also, the “control of urease-producing microorganisms (in words)” value in data set [3] is listed as “also effective”.
